Results: patent publication US20240109917A1 (ACTELION PHARMACEUTICALS LTD, priority 2020, published 2024)
Like-named read-outs stand apart in the source and are kept apart here.

Key:
[1] = target: Tb-labeled inactive PDGFRβ (Homo sapiens (Human), UniProt P09619); assay: PDGFRβ LanthaScreen Assay; assay type: binding; conditions: read-out: PDGFR Lantha IC50
[2] = target: PDGFRβ (Rattus norvegicus (Rat), UniProt Q05030); assay: PDGFRβ Cellular Assay (PDGFRb P-Y751 HTRF in A10 cells stimulated with PDGF-BB); assay type: cell-based
Sequence of PDGFRβ (Q05030 32-1097): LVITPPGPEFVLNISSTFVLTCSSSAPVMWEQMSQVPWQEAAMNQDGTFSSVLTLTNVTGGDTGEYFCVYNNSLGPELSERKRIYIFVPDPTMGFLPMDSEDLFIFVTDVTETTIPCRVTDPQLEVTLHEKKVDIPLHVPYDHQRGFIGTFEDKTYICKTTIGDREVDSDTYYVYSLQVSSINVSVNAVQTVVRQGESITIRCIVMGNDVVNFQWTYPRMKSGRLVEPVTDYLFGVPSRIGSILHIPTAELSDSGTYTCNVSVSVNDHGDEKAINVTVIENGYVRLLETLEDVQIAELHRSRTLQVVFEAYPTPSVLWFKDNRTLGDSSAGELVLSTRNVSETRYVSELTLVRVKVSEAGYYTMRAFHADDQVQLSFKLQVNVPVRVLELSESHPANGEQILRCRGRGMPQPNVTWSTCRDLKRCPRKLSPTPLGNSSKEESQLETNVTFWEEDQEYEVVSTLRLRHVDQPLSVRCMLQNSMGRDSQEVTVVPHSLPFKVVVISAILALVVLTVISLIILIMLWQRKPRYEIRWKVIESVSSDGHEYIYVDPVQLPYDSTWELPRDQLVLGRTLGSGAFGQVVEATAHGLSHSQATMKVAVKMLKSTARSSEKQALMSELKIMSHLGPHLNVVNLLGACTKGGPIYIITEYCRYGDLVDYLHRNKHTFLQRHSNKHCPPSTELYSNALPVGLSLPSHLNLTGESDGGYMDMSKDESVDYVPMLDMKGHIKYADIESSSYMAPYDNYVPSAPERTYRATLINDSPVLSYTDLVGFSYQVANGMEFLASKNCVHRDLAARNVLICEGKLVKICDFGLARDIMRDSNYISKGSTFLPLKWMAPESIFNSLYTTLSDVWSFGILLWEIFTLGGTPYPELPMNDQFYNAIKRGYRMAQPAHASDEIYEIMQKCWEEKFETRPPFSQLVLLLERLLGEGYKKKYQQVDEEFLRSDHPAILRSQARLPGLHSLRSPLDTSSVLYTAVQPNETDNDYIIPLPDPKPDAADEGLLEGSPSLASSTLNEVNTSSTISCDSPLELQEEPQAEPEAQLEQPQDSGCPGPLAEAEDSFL
In short: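 Phospho-Y751 PDGFRβ was measured by HTRF in lysates of A10 rat cells. Cells received compound for 3 hours before PDGF-BB stimulation (100 ng/mL working stock).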

Sequence of Tb-labeled inactive PDGFRβ (P09619 33-1106): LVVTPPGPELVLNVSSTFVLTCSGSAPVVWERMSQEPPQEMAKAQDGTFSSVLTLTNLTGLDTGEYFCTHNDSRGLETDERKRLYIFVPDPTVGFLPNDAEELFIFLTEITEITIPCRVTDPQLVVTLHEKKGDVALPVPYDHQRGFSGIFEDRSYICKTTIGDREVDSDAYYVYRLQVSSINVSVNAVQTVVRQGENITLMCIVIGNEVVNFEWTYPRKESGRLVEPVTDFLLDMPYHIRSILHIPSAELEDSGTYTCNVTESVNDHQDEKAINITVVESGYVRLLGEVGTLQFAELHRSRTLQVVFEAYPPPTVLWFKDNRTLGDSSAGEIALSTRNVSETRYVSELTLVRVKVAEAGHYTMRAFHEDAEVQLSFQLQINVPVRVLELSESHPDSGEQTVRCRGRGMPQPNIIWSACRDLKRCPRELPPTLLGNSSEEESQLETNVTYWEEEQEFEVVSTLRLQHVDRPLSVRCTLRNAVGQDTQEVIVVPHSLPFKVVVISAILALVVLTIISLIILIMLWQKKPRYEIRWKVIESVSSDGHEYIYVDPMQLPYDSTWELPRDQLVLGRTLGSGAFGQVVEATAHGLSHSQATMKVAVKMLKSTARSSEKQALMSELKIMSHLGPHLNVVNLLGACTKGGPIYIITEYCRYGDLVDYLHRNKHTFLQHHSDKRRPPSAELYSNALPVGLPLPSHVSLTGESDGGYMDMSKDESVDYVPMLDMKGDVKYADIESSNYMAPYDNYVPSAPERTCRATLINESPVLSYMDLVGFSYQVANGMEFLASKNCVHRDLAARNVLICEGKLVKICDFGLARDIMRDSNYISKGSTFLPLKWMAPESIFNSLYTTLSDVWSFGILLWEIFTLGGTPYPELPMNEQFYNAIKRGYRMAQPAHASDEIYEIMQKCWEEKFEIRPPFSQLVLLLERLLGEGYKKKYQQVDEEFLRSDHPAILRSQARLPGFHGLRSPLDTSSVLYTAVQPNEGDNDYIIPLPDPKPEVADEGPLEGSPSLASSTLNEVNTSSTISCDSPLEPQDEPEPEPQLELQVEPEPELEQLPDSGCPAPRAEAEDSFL

Compound	IC50 [1]	IC50 ([2]; read-out: PDGFR Cellular IC50)	IC50 ([2]; PDGFR Cellular IC50)
Cc1ncc(C(=O)NCCN2CCCC2(C)C)cc1NC(=O)c1cnn2cc(-c3cn(C)nc3CO)sc12 [Example 224, N-(5-((2-(2,2-dimethylpyrrolidin-1-yl)ethyl)carbamoyl)-2-methylpyridin-3-yl)-2-(3-(hydroxymethyl)-1-methyl-1H-pyrazol-4-yl)pyrazolo[5,1-b]thiazole-7-carboxamide]	0.0112 µM	0.903 µM	
Cc1ncc(C(=O)NCCN2CCCC23CCC3)cc1NC(=O)c1cnn2cc(-c3cnn(C)c3C)sc12 [Example 209, N-(5-((2-(5-azaspiro[3.4]octan-5-yl)ethyl)carbamoyl)-2-methyl-pyridin-3-yl)-2-(1,5-dimethyl-1H-pyrazol-4-yl)pyrazolo[5,1-b]thiazole-7-carboxamide]	0.0022 µM	0.0028 µM	
COc1ncccc1-c1cn2ncc(C(=O)Nc3cc(NC(=O)OC[C@@H]4CCCN4C)cnc3C)c2s1 [Example 253, (S)-(1-methylpyrrolidin-2-yl)methyl (5-(2-(2-methoxypyridin-3-yl)pyrazolo[5,1-b]thiazole-7-carboxamido)-6-methylpyridin-3-yl)carbamate]	0.0018 µM	0.0044 µM	
Cc1ncc(NC(=O)CN2CCC3(COC3)C2)cc1NC(=O)c1cnn2cc(-c3cnn(C)c3)sc12 [Example 18, N-(5-(2-(2-oxa-6-azaspiro[3.4]octan-6-yl)acetamido)-2-methylpyridin-3-yl)-2-(1-methyl-1H-pyrazol-4-yl)pyrazolo[5,1-b]thiazole-7-carboxamide]	0.0095 µM	0.0498 µM	
Cc1ncc(NC(=O)OCC(C)(C)N2CCCC2)cc1NC(=O)c1cnn2cc(-c3cnn(C)c3)sc12 [Example 249, 2-methyl-2-(pyrrolidin-1-yl)propyl (6-methyl-5-(2-(1-methyl-1H-pyrazol-4-yl)pyrazolo[5,1-b]thiazole-7-carboxamido)pyridin-3-yl)carbamate]	0.0065 µM	0.0598 µM	
Cc1ncc(NC(=O)OCCN2CCCC2)cc1NC(=O)c1cnn2cc(-c3cnn(C)c3)sc12 [Example 246, 2-(pyrrolidin-1-yl)ethyl (6-methyl-5-(2-(1-methyl-1H-pyrazol-4-yl)pyrazolo[5,1-b]thiazole-7-carboxamido)pyridin-3-yl)carbamate]	0.0647 µM	0.113 µM	
Cc1ncc(C(=O)NCCN2CCCC2(C)C)cc1NC(=O)c1cnn2cc(-c3cnn(CCC(O)CO)c3)sc12 (centres unmarked) [Example 221, 2-(1-(3,4-Dihydroxybutyl)-1H-pyrazol-4-yl)-N-(5-((2-(2,2-dimethylpyrrolidin-1-yl)ethyl)carbamoyl)-2-methylpyridin-3-yl)pyrazolo[5,1-b]thiazole-7-carboxamide]	0.0071 µM	1.71 µM	
Cc1ncc(C(=O)NCCN2CC3CCC2C3)cc1NC(=O)c1cnn2cc(-c3cnn(C)c3C)sc12 (centres unmarked) [Example 210, N-(5-((2-(2-azabicyclo[2.2.1]heptan-2-yl)ethyl)carbamoyl)-2-methylpyridin-3-yl)-2-(1,5-dimethyl-1H-pyrazol-4-yl)pyrazolo[5,1-b]thiazole-7-carboxamide]	0.0026 µM	0.0898 µM	
Cc1ncc(NC(=O)OC[C@@H]2CCCN2C(C)C)cc1NC(=O)c1cnn2cc(-c3cnn(C)c3)sc12 [Example 245, (S)-(1-isopropylpyrrolidin-2-yl)methyl (6-methyl-5-(2-(1-methyl-1H-pyrazol-4-yl)pyrazolo[5,1-b]thiazole-7-carboxamido)pyridin-3-yl)carbamate]	0.0108 µM	0.0181 µM	
COc1ncccc1-c1cn2ncc(C(=O)Nc3cc(C(=O)NCCN4CCCC4(C)C)cnc3C)c2s1 [Example 226, N-(5-((2-(2,2-Dimethylpyrrolidin-1-yl)ethyl)carbamoyl)-2-methylpyridin-3-yl)-2-(2-methoxypyridin-3-yl)pyrazolo[5,1-b]thiazole-7-carboxamide]	0.0013 µM	0.0032 µM	
Cc1cc(C(=O)NCCN2CCC3(CCC3)CC2)sc1NC(=O)c1cnn2cc(-c3cnn(C)c3)sc12 [Example 203, N-(5-((2-(7-azaspiro[3.5]nonan-7-yl)ethyl)carbamoyl)-3-methylthiophen-2-yl)-2-(1-methyl-1H-pyrazol-4-yl)pyrazolo[5,1-b]thiazole-7-carboxamide]	1.06 µM	0.449 µM	
Cc1cc(C(=O)NCC(C)(C)N2CCCC2)sc1NC(=O)c1cnn2cc(-c3cnn(C)c3)sc12 [Example 202, 2-(1-methyl-1H-pyrazol-4-yl)-N-(3-methyl-5-((2-methyl-2-(pyrrolidin-1-yl)propyl)carbamoyl)thiophen-2-yl)pyrazolo[5,1-b]thiazole-7-carboxamide]	> 3 µM		> 3 µM
Cc1ncc(C(=O)NCCN2C[C@H]3CC[C@@H]2C3)cc1NC(=O)c1cnn2cc(-c3cn(C)nc3C)sc12 [Example 211, N-(5-((2-((1R,4S)-2-azabicyclo[2.2.1]heptan-2-yl)ethyl)carbamoyl)-2-methylpyridin-3-yl)-2-(1,3-dimethyl-1H-pyrazol-4-yl)pyrazolo[5,1-b]thiazole-7-carboxamide]	0.0024 µM	0.0636 µM	
Cc1cc(C(=O)NCCN2CCC(C)(C)CC2)sc1NC(=O)c1cnn2cc(-c3cnn(C)c3)sc12 [Example 183, N-(5-((2-(4,4-dimethylpiperidin-1-yl)ethyl)carbamoyl)-3-methylthiophen-2-yl)-2-(1-methyl-1H-pyrazol-4-yl)pyrazolo[5,1-b]thiazole-7-carboxamide]	0.652 µM	0.178 µM	
Cc1ncc(NC(=O)CCN2CCCC2(C)C)cc1NC(=O)c1cnn2cc(-c3cccc4c3cnn4C)sc12 [Example 241, N-(5-(3-(2,2-dimethylpyrrolidin-1-yl)propanamido)-2-methylpyridin-3-yl)-2-(1-methyl-1H-indazol-4-yl)pyrazolo[5,1-b]thiazole-7-carboxamide]	0.0007 µM	0.0027 µM	
Cc1ncc(C(=O)NCCN2CCCC2(C)C)cc1NC(=O)c1cnn2cc(-c3cncc(S(C)(=O)=O)c3)sc12 [Example 230, N-(5-((2-(2,2-dimethylpyrrolidin-1-yl)ethyl)carbamoyl)-2-methylpyridin-3-yl)-2-(5-(methylsulfonyl)pyridin-3-yl)pyrazolo[5,1-b]thiazole-7-carboxamide]	0.0829 µM	0.791 µM	
Cc1cc(C(=O)NCCN2CC3CCC2CC3)sc1NC(=O)c1cnn2cc(-c3cnn(C)c3)sc12 [Example 199, N-(5-((2-(2-azabicyclo[2.2.2]octan-2-yl)ethyl)carbamoyl)-3-methylthiophen-2-yl)-2-(1-methyl-1H-pyrazol-4-yl)pyrazolo[5,1-b]thiazole-7-carboxamide]	0.125 µM	0.237 µM	
Cc1ncc(NC(=O)OCCN(C)C2CCCCC2)cc1NC(=O)c1cnn2cc(-c3cnn(C)c3)sc12 [Example 251, 2-(cyclohexyl(methyl)amino)ethyl (6-methyl-5-(2-(1-methyl-1H-pyrazol-4-yl)pyrazolo[5,1-b]thiazole-7-carboxamido)pyridin-3-yl)carbamate]	0.0336 µM	0.0284 µM	
Cc1ncc(C(=O)NCCN2CC3CCC2CC3)cc1NC(=O)c1cnn2cc(-c3cnn(C4CC4)c3)sc12 [Example 181, N-(5-((2-(2-azabicyclo[2.2.2]octan-2-yl)ethyl)carbamoyl)-2-methylpyridin-3-yl)-2-(1-cyclopropyl-1H-pyrazol-4-yl)pyrazolo[5,1-b]thiazole-7-carboxamide]	0.0023 µM	0.0161 µM	
Cc1cc(C(=O)NCCN2CCOCC23CC3)sc1NC(=O)c1cnn2cc(-c3cnn(C)c3)sc12 [Example 197, N-(5-((2-(7-oxa-4-azaspiro[2.5]octan-4-yl)ethyl)carbamoyl)-3-methylthiophen-2-yl)-2-(1-methyl-1H-pyrazol-4-yl)pyrazolo[5,1-b]thiazole-7-carboxamide]	0.051 µM	0.613 µM	
Cc1ncc(C(=O)NCCN(CCO)CC2CCCCC2)cc1NC(=O)c1cnn2cc(-c3cnn(C)c3)sc12 [Example 235, N-(5-((2-((cyclohexylmethyl)(2-hydroxyethyl)amino)ethyl)carbamoyl)-2-methylpyridin-3-yl)-2-(1-methyl-1H-pyrazol-4-yl)pyrazolo[5,1-b]thiazole-7-carboxamide]	0.0052 µM	0.0095 µM	
Cc1ncc(C(=O)NCCN2CCCC23CCC3)cc1NC(=O)c1cnn2cc(-c3c(C)nn(C)c3C)sc12 [Example 214, N-(5-((2-(5-azaspiro[3.4]octan-5-yl)ethyl)carbamoyl)-2-methylpyridin-3-yl)-2-(1,3,5-trimethyl-1H-pyrazol-4-yl)pyrazolo[5,1-b]thiazole-7-carboxamide]	0.0018 µM	0.0039 µM	
Cc1ncc(NC(=O)OCC(C)N2CCCC2)cc1NC(=O)c1cnn2cc(-c3cnn(C)c3)sc12 (centres unmarked) [Example 248, 2-(pyrrolidin-1-yl)propyl (6-methyl-5-(2-(1-methyl-1H-pyrazol-4-yl)pyrazolo[5,1-b]thiazole-7-carboxamido)pyridin-3-yl)carbamate]	0.0102 µM	0.0313 µM	
Cc1ncc(C(=O)NCCN2CCCC2(C)C)cc1NC(=O)c1cnn2cc(-c3cccc4c3cnn4C)sc12 [Example 240, N-(5-((2-(2,2-dimethylpyrrolidin-1-yl)ethyl)carbamoyl)-2-methylpyridin-3-yl)-2-(1-methyl-1H-indazol-4-yl)pyrazolo[5,1-b]thiazole-7-carboxamide]	0.002 µM	0.0118 µM	
Cc1cc(C(=O)NCCN2CCc3ccccc3C2)sc1NC(=O)c1cnn2cc(-c3cnn(C)c3)sc12 [Example 204, N-(5-((2-(3,4-dihydroisoquinolin-2 (1H)-yl)ethyl)carbamoyl)-3-methylthiophen-2-yl)-2-(1-methyl-1H-pyrazol-4-yl)pyrazolo[5,1-b]thiazole-7-carboxamide]	0.42 µM	0.46 µM	
